Laboratory results taken from patent US6355799B1, “Substituted benzene compounds, process for their preparation, and herbicidal and defoliant compositions containing them” (ISK Americas Incorporated, priority 1997, dated 2002).

Key:
Assay type in all cases: in vivo
[1] = tested on: field corn (Zea mays L., var. Dekalb 535, CORN); assay: Pre-emerge test, crop safety; conditions: rating scale 0-100, 14 days after application
Outline: (§1)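 Fourteen days after spraying, crop and weed injury was graded visually from 0, no effect, to 100, every plant dead. Test substances were dissolved in acetone and applied at 15–1000 g ai/ha with a flat-fan nozzle. Application was either pre-emergence, one day after sowing, or post-emergence at the 2–3 leaf stage.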

[2] = tested on: upland rice (Oryza sp., var. Tebonnet, RICE); assay: Pre-emerge test, crop safety; conditions: rating scale 0-100, 14 days after application
Outline: as §1

[3] = tested on: large crabgrass (Digitaria sanguinalis, DIGSA); assay: Post-emerge test, greenhouse herbicide activity screening; conditions: rating scale 0-100 (0 no damage, 100 complete death), 14 days after application
Outline: (§2)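 Compounds in acetone were track-sprayed at 15-1000 g ai/ha (187 l/ha) on sandy loam pots: pre-emerge one day after seeding, post-emerge at 2-3 leaf stage with 0.25% v/v non-ionic surfactant. Phytotoxicity was rated 14 days later on a 0 (no damage) to 100 (complete death) scale.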

[4] = tested on: ivyleaf morningglory (Ipomoea hederacea, IPOHE); assay: as above; conditions: rating scale 0-100 (0 no damage, 100 complete death), 14 days after application
Outline: as §2

[5] = tested on: barnyardgrass (Echinochloa crus-galli, ECHCG); assay: as above; conditions: rating scale 0-100 (0 no damage, 100 complete death), 14 days after application
Outline: as §2

[6] = tested on: sicklepod (Cassia obtusifolia, CASOB); assay: as above; conditions: rating scale 0-100 (0 no damage, 100 complete death), 14 days after application
Outline: as §2

[7] = tested on: redroot pigweed (Amaranthus retroflexus, AMARE); assay: as above; conditions: rating scale 0-100 (0 no damage, 100 complete death), 14 days after application
Outline: as §2

[8] = tested on: johnsongrass (Sorghum halepense, SORHA); assay: as above; conditions: rating scale 0-100 (0 no damage, 100 complete death), 14 days after application
Outline: as §2

[9] = tested on: lambsquarters (Chenopodium album, CHEAL); assay: as above; conditions: rating scale 0-100 (0 no damage, 100 complete death), 14 days after application
Outline: as §2

[10] = tested on: common ragweed (Ambrosia artemisizfolia L., AMBEL); assay: as above; conditions: rating scale 0-100 (0 no damage, 100 complete death), 14 days after application
Outline: as §2

[11] = tested on: green foxtail (Setaria viridis, SETVI); assay: as above; conditions: rating scale 0-100 (0 no damage, 100 complete death), 14 days after application
Outline: as §2

[12] = tested on: velvetleaf (Abutilon theophrasti, ABUTH); assay: as above; conditions: rating scale 0-100 (0 no damage, 100 complete death), 14 days after application
Outline: as §2

[13] = tested on: redroot pigweed (Amaranthus retroflexus, AMARE); assay: Pre-emerge test, greenhouse herbicide activity screening; conditions: rating scale 0-100, 14 days after application
Outline: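 Visual ratings on a 0-100 scale (0 no damage, 100 all plants dead) were taken at 14 days after treatment. Rates of 15-1000 g ai/ha in acetone, 187 l/ha, were sprayed onto soil one day after planting (pre-emerge) or onto 2-3 leaf plants with 0.25% v/v surfactant (post-emerge).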

[14] = tested on: field corn (Zea mays L., var. Dekalb 535, CORN); assay: Post-emerge test, crop safety; conditions: rating scale 0-100 (0 no damage, 100 complete death), 14 days after application
Outline: (§3)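 Herbicidal damage is scored 0 (none) to 100 (complete plant death) two weeks after a simulated field spray. Rates span 15–1000 g ai/ha, delivered in acetone at 187 l/ha. For post-emergence treatments, plants have 2–3 leaves and the spray carries 0.25% v/v non-ionic surfactant.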

[15] = tested on: upland rice (Oryza sp., var. Tebonnet, RICE); assay: Post-emerge test, crop safety; conditions: rating scale 0-100 (0 no damage, 100 complete death), 14 days after application
Outline: as §3

[16] = tested on: large crabgrass (Digitaria sanguinalis, DIGSA); assay: Pre-emerge test, greenhouse herbicide activity screening; conditions: rating scale 0-100, 14 days after application
Outline: as §3

[17] = tested on: ivyleaf morningglory (Ipomoea hederacea, IPOHE); assay: as above; conditions: rating scale 0-100, 14 days after application
Outline: as §3

[18] = tested on: barnyardgrass (Echinochloa crus-galli, ECHCG); assay: as above; conditions: rating scale 0-100, 14 days after application
Outline: as §3

[19] = tested on: sicklepod (Cassia obtusifolia, CASOB); assay: as above; conditions: rating scale 0-100, 14 days after application
Outline: as §3

[20] = tested on: johnsongrass (Sorghum halepense, SORHA); assay: as above; conditions: rating scale 0-100, 14 days after application
Outline: as §3

[21] = tested on: lambsquarters (Chenopodium album, CHEAL); assay: as above; conditions: rating scale 0-100, 14 days after application
Outline: as §3

[22] = tested on: green foxtail (Setaria viridis, SETVI); assay: as above; conditions: rating scale 0-100, 14 days after application
Outline: as §3

[23] = tested on: velvetleaf (Abutilon theophrasti, ABUTH); assay: as above; conditions: rating scale 0-100, 14 days after application
Outline: as §3

Compound: CCOC(=O)C(C)(Cl)Cc1c(OC)c(Cl)cc(F)c1-n1c(=O)cc(C(F)(F)F)n(C)c1=O (centres unmarked) [14-34]
- Pre-emerge phytotoxicity rating, crop damage CORN ([1]; 63 g ai/ha): 0
- Pre-emerge phytotoxicity rating, crop damage CORN ([1]; 250 g ai/ha): 25
- Pre-emerge phytotoxicity rating, crop damage RICE ([2]; 63 g ai/ha): 20
- Pre-emerge phytotoxicity rating, crop damage RICE ([2]; 250 g ai/ha): 90
- Post-emerge Herbicidal Activity, phytotoxicity rating DIGSA ([3]; Rate 63 g ai/ha): 70
- Post-emerge Herbicidal Activity, phytotoxicity rating DIGSA ([3]; Rate 250 g ai/ha): 99
- Post-emerge Herbicidal Activity, phytotoxicity rating IPOHE ([4]; Rate 63 g ai/ha): 60
- Post-emerge Herbicidal Activity, phytotoxicity rating IPOHE ([4]; Rate 250 g ai/ha): 90
- Post-emerge Herbicidal Activity, phytotoxicity rating ECHCG ([5]; Rate 63 g ai/ha): 100
- Post-emerge Herbicidal Activity, phytotoxicity rating ECHCG ([5]; Rate 250 g ai/ha): 100
- Post-emerge Herbicidal Activity, phytotoxicity rating CASOB ([6]; Rate 63 g ai/ha): 40
- Post-emerge Herbicidal Activity, phytotoxicity rating CASOB ([6]; Rate 250 g ai/ha): 100
- Post-emerge Herbicidal Activity, phytotoxicity rating AMARE ([7]; Rate 63 g ai/ha): 100
- Post-emerge Herbicidal Activity, phytotoxicity rating AMARE ([7]; Rate 250 g ai/ha): 100
- Post-emerge Herbicidal Activity, phytotoxicity rating SORHA ([8]; Rate 63 g ai/ha): 60
- Post-emerge Herbicidal Activity, phytotoxicity rating SORHA ([8]; Rate 250 g ai/ha): 80
- Post-emerge Herbicidal Activity, phytotoxicity rating CHEAL ([9]; Rate 63 g ai/ha): 100
- Post-emerge Herbicidal Activity, phytotoxicity rating CHEAL ([9]; Rate 250 g ai/ha): 100
- Post-emerge Herbicidal Activity, phytotoxicity rating AMBEL ([10]; Rate 63 g ai/ha): 40
- Post-emerge Herbicidal Activity, phytotoxicity rating AMBEL ([10]; Rate 250 g ai/ha): 100
- Post-emerge Herbicidal Activity, phytotoxicity rating SETVI ([11]; Rate 63 g ai/ha): 100
- Post-emerge Herbicidal Activity, phytotoxicity rating SETVI ([11]; Rate 250 g ai/ha): 100
- Post-emerge Herbicidal Activity, phytotoxicity rating ABUTH ([12]; Rate 63 g ai/ha): 99
- Post-emerge Herbicidal Activity, phytotoxicity rating ABUTH ([12]; Rate 250 g ai/ha): 100
- Pre-emerge herbicidal activity, phytotoxicity rating AMARE ([13]; 63 g ai/ha): 100
- Pre-emerge herbicidal activity, phytotoxicity rating AMARE ([13]; 250 g ai/ha): 100
- Post-emerge phytotoxicity rating CORN (crop damage) ([14]; Rate 63 g ai/ha): 80
- Post-emerge phytotoxicity rating CORN (crop damage) ([14]; Rate 250 g ai/ha): 100
- Post-emerge phytotoxicity rating RICE (crop damage) ([15]; Rate 63 g ai/ha): 25
- Post-emerge phytotoxicity rating RICE (crop damage) ([15]; Rate 250 g ai/ha): 70
- Pre-emerge herbicidal activity, phytotoxicity rating DIGSA ([16]; 63 g ai/ha): 90
- Pre-emerge herbicidal activity, phytotoxicity rating DIGSA ([16]; 250 g ai/ha): 100
- Pre-emerge herbicidal activity, phytotoxicity rating IPOHE ([17]; 63 g ai/ha): 10
- Pre-emerge herbicidal activity, phytotoxicity rating IPOHE ([17]; 250 g ai/ha): 10
- Pre-emerge herbicidal activity, phytotoxicity rating ECHCG ([18]; 63 g ai/ha): 20
- Pre-emerge herbicidal activity, phytotoxicity rating ECHCG ([18]; 250 g ai/ha): 90
- Pre-emerge herbicidal activity, phytotoxicity rating CASOB ([19]; 63 g ai/ha): 20
- Pre-emerge herbicidal activity, phytotoxicity rating CASOB ([19]; 250 g ai/ha): 10
- Pre-emerge herbicidal activity, phytotoxicity rating SORHA ([20]; 63 g ai/ha): 0
- Pre-emerge herbicidal activity, phytotoxicity rating SORHA ([20]; 250 g ai/ha): 30
- Pre-emerge herbicidal activity, phytotoxicity rating CHEAL ([21]; 63 g ai/ha): 95
- Pre-emerge herbicidal activity, phytotoxicity rating CHEAL ([21]; 250 g ai/ha): 100
- Pre-emerge herbicidal activity, phytotoxicity rating SETVI ([22]; 63 g ai/ha): 30
- Pre-emerge herbicidal activity, phytotoxicity rating SETVI ([22]; 250 g ai/ha): 100
- Pre-emerge herbicidal activity, phytotoxicity rating ABUTH ([23]; 63 g ai/ha): 100
- Pre-emerge herbicidal activity, phytotoxicity rating ABUTH ([23]; 250 g ai/ha): 100

Compound: CCCOC(=O)C(C)(Cl)Cc1c(OC)c(Cl)cc(F)c1-n1c(=O)cc(C(F)(F)F)n(C)c1=O (centres unmarked) [14-35]
- Pre-emerge phytotoxicity rating, crop damage CORN ([1]; 63 g ai/ha): 0
- Pre-emerge phytotoxicity rating, crop damage CORN ([1]; 250 g ai/ha): 25
- Pre-emerge phytotoxicity rating, crop damage RICE ([2]; 63 g ai/ha): 0
- Pre-emerge phytotoxicity rating, crop damage RICE ([2]; 250 g ai/ha): 10
- Post-emerge Herbicidal Activity, phytotoxicity rating DIGSA ([3]; Rate 63 g ai/ha): 50
- Post-emerge Herbicidal Activity, phytotoxicity rating DIGSA ([3]; Rate 250 g ai/ha): 95
- Post-emerge Herbicidal Activity, phytotoxicity rating IPOHE ([4]; Rate 63 g ai/ha): 70
- Post-emerge Herbicidal Activity, phytotoxicity rating IPOHE ([4]; Rate 250 g ai/ha): 100
- Post-emerge Herbicidal Activity, phytotoxicity rating ECHCG ([5]; Rate 63 g ai/ha): 100
- Post-emerge Herbicidal Activity, phytotoxicity rating ECHCG ([5]; Rate 250 g ai/ha): 100
- Post-emerge Herbicidal Activity, phytotoxicity rating CASOB ([6]; Rate 63 g ai/ha): 0
- Post-emerge Herbicidal Activity, phytotoxicity rating CASOB ([6]; Rate 250 g ai/ha): 90
- Post-emerge Herbicidal Activity, phytotoxicity rating AMARE ([7]; Rate 63 g ai/ha): 100
- Post-emerge Herbicidal Activity, phytotoxicity rating AMARE ([7]; Rate 250 g ai/ha): 100
- Post-emerge Herbicidal Activity, phytotoxicity rating SORHA ([8]; Rate 63 g ai/ha): 30
- Post-emerge Herbicidal Activity, phytotoxicity rating SORHA ([8]; Rate 250 g ai/ha): 70
- Post-emerge Herbicidal Activity, phytotoxicity rating CHEAL ([9]; Rate 63 g ai/ha): 100
- Post-emerge Herbicidal Activity, phytotoxicity rating CHEAL ([9]; Rate 250 g ai/ha): 100
- Post-emerge Herbicidal Activity, phytotoxicity rating AMBEL ([10]; Rate 63 g ai/ha): 100
- Post-emerge Herbicidal Activity, phytotoxicity rating AMBEL ([10]; Rate 250 g ai/ha): 100
- Post-emerge Herbicidal Activity, phytotoxicity rating SETVI ([11]; Rate 63 g ai/ha): 50
- Post-emerge Herbicidal Activity, phytotoxicity rating SETVI ([11]; Rate 250 g ai/ha): 95
- Post-emerge Herbicidal Activity, phytotoxicity rating ABUTH ([12]; Rate 63 g ai/ha): 95
- Post-emerge Herbicidal Activity, phytotoxicity rating ABUTH ([12]; Rate 250 g ai/ha): 100
- Pre-emerge herbicidal activity, phytotoxicity rating AMARE ([13]; 63 g ai/ha): 100
- Pre-emerge herbicidal activity, phytotoxicity rating AMARE ([13]; 250 g ai/ha): 100
- Post-emerge phytotoxicity rating CORN (crop damage) ([14]; Rate 63 g ai/ha): 100
- Post-emerge phytotoxicity rating CORN (crop damage) ([14]; Rate 250 g ai/ha): 100
- Post-emerge phytotoxicity rating RICE (crop damage) ([15]; Rate 63 g ai/ha): 80
- Post-emerge phytotoxicity rating RICE (crop damage) ([15]; Rate 250 g ai/ha): 100
- Pre-emerge herbicidal activity, phytotoxicity rating DIGSA ([16]; 63 g ai/ha): 50
- Pre-emerge herbicidal activity, phytotoxicity rating DIGSA ([16]; 250 g ai/ha): 95
- Pre-emerge herbicidal activity, phytotoxicity rating IPOHE ([17]; 63 g ai/ha): 0
- Pre-emerge herbicidal activity, phytotoxicity rating IPOHE ([17]; 250 g ai/ha): 0
- Pre-emerge herbicidal activity, phytotoxicity rating ECHCG ([18]; 63 g ai/ha): 0
- Pre-emerge herbicidal activity, phytotoxicity rating ECHCG ([18]; 250 g ai/ha): 99
- Pre-emerge herbicidal activity, phytotoxicity rating CASOB ([19]; 63 g ai/ha): 0
- Pre-emerge herbicidal activity, phytotoxicity rating CASOB ([19]; 250 g ai/ha): 0
- Pre-emerge herbicidal activity, phytotoxicity rating SORHA ([20]; 63 g ai/ha): 0
- Pre-emerge herbicidal activity, phytotoxicity rating SORHA ([20]; 250 g ai/ha): 50
- Pre-emerge herbicidal activity, phytotoxicity rating CHEAL ([21]; 63 g ai/ha): 50
- Pre-emerge herbicidal activity, phytotoxicity rating CHEAL ([21]; 250 g ai/ha): 100
- Pre-emerge herbicidal activity, phytotoxicity rating SETVI ([22]; 63 g ai/ha): 80
- Pre-emerge herbicidal activity, phytotoxicity rating SETVI ([22]; 250 g ai/ha): 100
- Pre-emerge herbicidal activity, phytotoxicity rating ABUTH ([23]; 63 g ai/ha): 100
- Pre-emerge herbicidal activity, phytotoxicity rating ABUTH ([23]; 250 g ai/ha): 100
